The values that follow come from publication PMC10272180, “Ancient medicinal plant rosemary contains a highly efficacious and isoform-selective KCNQ potassium channel opener” (Communications Biology, 2023).

For orientation: EC50 means the concentration needed to bring the measured effect to its halfway point. Read a low EC50 as greater potency.

One data set concerns the target T1, KCNQ2/3 (Homo sapiens, UniProt O43525+O43526).
T1 construct: expressed in transfected cells; host or cells: Xenopus laevis oocytes co-injected with cRNAs
Description: TEVC of KCNQ2/3 heteromers expressed in Xenopus laevis oocytes. It counts as cell-based. The text has this:
(§1) We generated cRNA transcripts encoding human KCNQ1, 2, 3, and 5 (wild-type and mutant) by in vitro transcription using the mMessage mMachine kit (Thermo Fisher Scientific, Waltham, MA, USA) according to manufacturer’s instructions, after vector linearization, from cDNA sub-cloned into expression vectors (pTLNx and pXOOM) incorporating Xenopus laevis β-globin 5’ and 3’ UTRs flanking the coding region to enhance translation and cRNA stability. Mutant KCNQ cDNAs were generated by Genscript (Piscataway, NJ, USA) and cRNAs made as above. We injected defolliculated stage V and VI Xenopus laevis oocytes (Xenoocyte, Dexter, MI, USA) with KCNQ cRNAs (2–10 ng) and incubated the oocytes at 16 °C in ND96 oocyte storage solution containing penicillin and streptomycin, with daily washing, for 2–4 days prior to two-electrode voltage-clamp (TEVC) recording.
(§2) We placed oocytes in a small-volume oocyte bath (Warner) and viewed them with a dissection microscope for cellular electrophysiology. We sourced chemicals from Sigma-Aldrich (St. Louis, MO, USA) and Combi-Blocks (San Diego, CA, USA). We studied effects of Salvia rosmarinus extracts and of compounds, solubilized directly in bath solution (in mM): 96 NaCl, 4 KCl, 1 MgCl2, 1 CaCl2, 10 HEPES (pH 7.6). We introduced extracts or compounds into the oocyte recording bath by gravity perfusion at a constant flow of 1 ml per minute for 3 min prior to recording. Pipettes were of 1-2 MΩ resistance when filled with 3 M KCl. […] We analyzed data using Clampfit (Molecular Devices) and Graphpad Prism software (GraphPad, San Diego, CA, USA), stating values as mean ± SEM. We plotted raw or normalized tail currents versus prepulse voltage and fitted with a single Boltzmann function:1 g=(A1−A2)/1+exp[V1/2−V/Vs]y+A2 where g is the normalized tail conductance, A1 is the initial value at -∞, A2 is the final value at +∞, V1/2 is the half-maximal voltage of activation and Vs the slope factor. We fitted activation and deactivation kinetics with single exponential functions.

The target of the next data set is KCNQ2 (Homo sapiens, UniProt O43526). Nature of the data set: TEVC of KCNQ2 homomers expressed in Xenopus laevis oocytes. It counts as cell-based.
Excerpt: as §1
as §2, with “We performed TEVC at room temperature using an OC-725C amplifier (Warner Instruments, Hamden, CT, USA) and pClamp10 software (Molecular Devices, Sunnyvale, CA, USA) 2–4 days after cRNA injection. We placed” for “We placed”

The conditions of data set [1]: cited from earlier work.
The target of a further data set is KCNQ3*-R242A (Homo sapiens, UniProt O43525, A315T/R242A). Nature of the data set: TEVC of mutant KCNQ3*-R242A in oocytes. It counts as cell-based.
Excerpt: as §1
We performed TEVC at room temperature using an OC-725C amplifier (Warner Instruments, Hamden, CT, USA) and pClamp10 software (Molecular Devices, Sunnyvale, CA, USA) 2–4 days after cRNA injection. We placed oocytes in a small-volume oocyte bath (Warner) and viewed them with a dissection microscope for cellular electrophysiology. We sourced chemicals from Sigma-Aldrich (St. Louis, MO, USA) and Combi-Blocks (San Diego, CA, USA). We studied effects of Salvia rosmarinus extracts and of compounds, solubilized directly in bath solution (in mM): 96 NaCl, 4 KCl, 1 MgCl2, 1 CaCl2, 10 HEPES (pH 7.6). We introduced extracts or compounds into the oocyte recording bath by gravity perfusion at a constant flow of 1 ml per minute for 3 min prior to recording. Pipettes were of 1-2 MΩ resistance when filled with 3 M KCl. We recorded currents in response to voltage pulses between −120 mV and +40 mV at 10 mV intervals from a holding potential of −80 mV, to yield current-voltage relationships and examine activation kinetics. We analyzed data using Clampfit (Molecular Devices) and Graphpad Prism software (GraphPad, San Diego, CA, USA), stating values as mean ± SEM. We plotted raw or normalized tail currents versus prepulse voltage and fitted with a single Boltzmann function:1 g=(A1−A2)/1+exp[V1/2−V/Vs]y+A2 where g is the normalized tail conductance, A1 is the initial value at -∞, A2 is the final value at +∞, V1/2 is the half-maximal voltage of activation and Vs the slope factor. We fitted activation and deactivation kinetics with single exponential functions.

With `CC(C)c1cc2c(c(O)c1O)[C@@]1(C(=O)O)CCCC(C)(C)[C@@H]1CC2` [Carnosic acid, carnosic acid], the “V0.5 Normalized tail current” value at KCNQ2/3 (0.1 µM) was -44.63 ± 0.46 mV; on KCNQ2/3 (1 µM) it was -45.44 ± 0.41 mV; on KCNQ2/3 (3 µM), -46.40 ± 0.45 mV; on KCNQ2/3 (10 µM), -47.94 ± 0.61 mV; on KCNQ2/3 (30 µM) it was -49.09 ± 0.55 mV; on KCNQ2/3 (100 µM), -49.95 ± 0.65 mV. Further, the “V0.5 Normalized tail current” value at KCNQ2 (0.1 µM) is recorded as -41.03 ± 1.43 mV; on KCNQ2 (1 µM), -44.14 ± 0.95 mV; at KCNQ2 (3 µM) it was -46.74 ± 0.85 mV; on KCNQ2 (10 µM), -45.67 ± 0.73 mV; at KCNQ2 (30 µM) it was -45.20 ± 0.88 mV; on KCNQ2 (100 µM), -43.10 ± 0.64 mV. Besides, the “V0.5 Normalized tail current” value on KCNQ3*-R242A (0.1 µM) was -21.11 ± 0.68 mV; on KCNQ3*-R242A (1 µM) it was -24.52 ± 0.42 mV; on KCNQ3*-R242A (3 µM), -27.59 ± 0.38 mV; at KCNQ3*-R242A (10 µM) it was -30.42 ± 0.37 mV; on KCNQ3*-R242A (30 µM) it was -35.30 ± 0.41 mV. Also, the “activity across the concentration range tested” value at KCNQ2/3 (0.1-100 µM) and on KCNQ2 (0.1-100 µM) was “only weakly active” in each case. Also, the “blood brain barrier crossing” value in data set [1] is “crosses the blood brain barrier”. Moreover, the response at KCNQ3*-R242A was half-maximal at 8.31 ± 0.14 µM (EC50). The compound further yielded a Slope on KCNQ3*-R242A (100 µM) of 8.88 ± 0.59 mV. Further, the “efficacy in terms of ΔV0.5act versus KCNQ3*” value at KCNQ3*-R242A (dose-response) is listed as “halved”.
